Reference: patent US20110077279A1, “ANGIOTENSIN II RECEPTOR ANTAGONISTS” (priority 2008, published 2011)
pEC50: −log10 of the molar value.

What was measured:
[1] = system: conscious spontaneously hypertensive rats (SHRs); experiment: Assay for antihypertensive activity (in vivo), telemetry; design: species or system rat
Experimental: The ability of the compounds of the invention to decrease blood pressure was evaluated in conscious spontaneously hypertensive rats (SHRs). SHRs (250-300 g) received a single oral dose of tested compounds. Systolic blood pressure (SBP) and heart rate were monitored by telemetry for 24 hrs after dosing. SBP was evaluated before (baseline) and at different time points (i.e. 2-6, 12, 21-24 hrs) following treatment by oral administration of the compounds. The data were processed both as the absolute value or as a delta between the absolute value and its own baseline.
The Dataquest IV telemetry system (Data Sciences International) was used for measurement of systolic pressure, diastolic pressure, mean arterial pressure, heart rate, and motor activity. The monitoring system consists of a transmitter (radio frequency transducer model TA11PA), receiver panel, consolidation matrix, and personal computer with accompanying software. Before the device was implanted, calibrations were verified to be accurate within ±3 mmHg. Rats were anesthetized with ketamine/xylazine/acepromazine, and the flexible catheter of the transmitter was surgically secured in the abdominal aorta just below the renal arteries. The transmitter was sutured subcutaneously. Rats were housed in individual cages after the operation. Each cage was placed over the receiver panel that was connected to the personal computer for data acquisition. The rats were unrestrained and free to move within their cages. Hemodynamic data were sampled every 2 minutes for 10 seconds.
Compared to Compound A (reference compound), the compounds of the invention provided BP lowering with extended peak effect and duration of action (see Data Table 2).

[2] = system: isolated rabbit thoracic aorta preparations; experiment: Assay on vascular tone: vasorelaxation of noradrenaline-precontracted aortic rings; assay type: cell-based; conditions: Oryctolagus cuniculus; rabbit aortic rings precontracted with noradrenaline 1 μM, functional endothelium; read-out: EC50 in vessel relaxation assay
Experimental: The ability of the compounds of the invention to induce vasorelaxation in comparison to native angiotensin II receptor blockers (ARBs), was tested in vitro in isolated rabbit thoracic aorta preparations (Wanstall J. C. et al., Br. J. Pharmacol., 134:463-472, 2001). Male New Zealand rabbits were anaesthetized with thiopental-Na (50 mg/kg, iv), sacrificed by exsanguinations and then the thorax was opened and the aorta dissected. Aortic ring preparations (4 mm in length) were set up in physiological salt solution (PSS) at 37° C. in small organ chambers (5 ml). The composition of PSS was (mM): NaCl 130, NaHCO3 14.9, KH2PO4 1.2, MgSO4 1.2, HEPES 10, […] (95% O2/5% CO2; pH 7.4). Each ring was mounted under 2 g passive tension. Isometric tension was recorded with a Grass transducer (Grass FT03) attached to a BIOPAC MP150 System. Preparations were allowed to equilibrate for 1 h, and then contracted submaximally with noradrenaline (NA, 1 μM) and, when the contraction was stable, acetylcholine (ACh, 10 μM) was added. A relaxant response to ACh indicated the presence of a functional endothelium. […] When a stable precontraction was reached, a cumulative concentration-response curve to either of the vasorelaxant agents was obtained in the presence of a functional endothelium. Each arterial ring was exposed to only one combination of inhibitor and vasorelaxant. Moreover, the effect of the soluble guanylyl cyclase inhibitor ODQ (1-H-(1,2,4)-oxadiazol(4,3-a)quinoxalin-1-one) on vasorelaxation elicited by the compounds was examined preincubating the aortic rings with ODQ (10 μM) for 20 min.
Responses to relaxing agents are expressed as a percentage of residual contraction and plotted against concentration of test compound. EC50 values (where EC50 is the concentration producing 50% of the maximum relaxation to the test compound) were interpolated from these plots.
During the experimental period, the plateau obtained with NA was stable without significant spontaneous loss of contraction in the aortic rings. […]

[3] = 2-6 h after single oral dose, 10 mpk
[4] = 21-24 h after single oral dose, 10 mpk
[5] = 12 h after single oral dose, 10 mpk

Row | Compound | Δ SBP in SHR [1, 3] [mmHg] | Δ SBP in SHR [1, 4] [mmHg] | Δ SBP in SHR [1, 5] [mmHg] | pEC50 [2] | Δ SBP in SHR ([1]; 2-6 h after single oral dose, 3 mpk) [mmHg] | Δ SBP in SHR ([1]; 21-24 h after single oral dose, 3 mpk) [mmHg] | Δ SBP in SHR ([1]; 12 h after single oral dose, 3 mpk) [mmHg]
1 | CCCCc1nc(Cl)c(C(=O)OCCOCCO[N+](=O)[O-])n1Cc1ccc(-c2ccccc2-c2nn[nH]n2)cc1 [A, reference compound] | −15 | −8 | −12 |  |  |  | 
2 | CCCCc1nc(Cl)c(C(=O)OC(C)OC(=O)O[C@@H]2CO[C@H]3[C@@H]2OC[C@H]3OC(=O)CCCC(CO[N+](=O)[O-])O[N+](=O)[O-])n1Cc1ccc(-c2ccccc2-c2nnn[nH]2)cc1 (stereo partly drawn) [Example 1, 1-(((3R,3aR,6R,6aR)-6-(5,6-bis(nitrooxy)hexanoyloxy)hexahydrofuro[3,2-b]furan-3-yloxy)carbonyloxy)ethyl 1-((2′-(1H-tetrazol-5-yl)biphenyl-4-yl)methyl)-2-butyl-4-chloro-1H-imidazole-5-carboxylate] | −19 | −11 | −14 | 5.21 |  |  | 
3 | CCOc1nc2cccc(C(=O)OC(C)(C)OC(=O)O[C@@H]3CO[C@H]4[C@@H]3OC[C@H]4OC(=O)CCCC(CO[N+](=O)[O-])O[N+](=O)[O-])c2n1Cc1ccc(-c2ccccc2-c2nnn[nH]2)cc1 (stereo partly drawn) [Example 2, 2-(((3R,3aR,6R,6aR)-6-(5,6-bis(nitrooxy)hexanoyloxy)hexahydrofuro[3,2-b]furan-3-yloxy)carbonyloxy)propan-2-yl 1-((2′-(1H-tetrazol-5-yl)biphenyl-4-yl)methyl)-2-ethoxy-1H-benzo[d]imidazole-7-carboxylate] |  |  |  | 6.57 | −37 | −33 | −34
4 | CCOc1nc2cccc(C(=O)OC(C)(C)OC(=O)O[C@@H]3CO[C@H]4[C@@H]3OC[C@H]4OC(=O)OCCC(C)(C)CC(CO[N+](=O)[O-])O[N+](=O)[O-])c2n1Cc1ccc(-c2ccccc2-c2nn[nH]n2)cc1 (stereo partly drawn) [Example 3, 2-(((3R,3aR,6R,6aR)-6-((3,3-dimethyl-5,6-bis(nitrooxy)hexyloxy)carbonyloxy)hexahydrofuro[3,2-b]furan-3-yloxy)carbonyloxy)propan-2-yl 1-((2′-(2H-tetrazol-5-yl)biphenyl-4-yl)methyl)-2-ethoxy-1H-benzo[d]imidazole-7-carboxylate] |  |  |  | 6.74 |  |  | 
